Laboratory results reported in publication PMC9676650, “Binding pocket stabilization by high-throughput screening of yeast display libraries” (Frontiers in Molecular Biosciences, 2022).
Changes are numbered by the printed parent chain.

Experiments:
FKBP51 WT (FK1 domain) = molecular target: T1, FKBP51 WT (FK1 domain) (Homo sapiens, UniProt Q13451); assay: Fluorescence polarization tracer binding, FKBP51 WT; conditions: for Fold change in Kd improvement: FKBP51 WT (reference); for Kd: FKBP51 WT, 0.5 nM SAFit-FL, 5 nM Mcyc-TA or 1 nM FK [431]-TA, 30 min room temperature, 3 independent experiments
T1 construct: made in house; host or cells: E. coli BL21 (DE3)
T1 sequence (Q13451 1-140): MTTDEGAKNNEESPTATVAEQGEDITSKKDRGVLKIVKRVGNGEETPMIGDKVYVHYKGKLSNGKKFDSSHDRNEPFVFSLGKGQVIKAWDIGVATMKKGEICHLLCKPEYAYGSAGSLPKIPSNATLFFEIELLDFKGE
Source text: (§1) All ligands and tracers used for fluorescence polarization assays had purities of more than 95%. The following ligands and tracers were used for fluorescence polarization and FACS screening experiments: •SAFit-FL tracer (1): Fluorescein conjugated analog of the iFit ligand class. •Mcyc-TA tracer (2): TAMRA conjugated macrocyclic ligand (5). •FK [431]-TA tracer (3): TAMRA conjugated FK [431] ligand (6). •SAFit1 ligand (4): analog of the iFit ligand class. •macrocyclic ligand (5):macrocyclic analog of the SAFit class ligands. •FK [431] ligand (6):bicyclic analog of the immunosuppressive drug FK506
(§2) The binding of the generated FKBP51 variants to different conformation-sensitive FKBP ligands was investigated by fluorescence polarization assays. Therefore, a serial dilution of the respective FKBP51 variant in assay buffer (20 mM HEPES pH 8.0, 150 mM NaCl, 0.015% Triton X-100) was placed in a 384-well assay plate and a defined amount of the respective fluorescent tracer (0.5 nM of the SAFit based tracer SAFit-FL (1), 5 nM of the macrocyclic tracer Mcyc-TA 2) or 1 nM of the FK [431]-TA 3) in assay buffer was added to the protein buffer mixture. After incubation for 30 min at room temperature, the fluorescence polarization was measured with a plate reader. The obtained results for each 3 independent experiments were normalized with respect to the maximal binding signal and fitted to a one-site binding model as described by [Wang et al., 1992] yielding the respective binding constants. tracer bound=100/Lt×0.5×(Rt+Lt+KD−(Rt+Lt+KD)^2−4×LtRt) With L t , total concentration of the tracer, R t , total concentration of the receptor and K D binding constant of the complex RL.

FKBP51 variant G64A = molecular target: T2, FKBP51 variant G64A (Homo sapiens, UniProt Q13451, G64A); assay: Fluorescence polarization tracer binding, FKBP51 G64A; conditions: for Fold change in Kd improvement: FKBP51 G64A compared to WT; for Kd: FKBP51 G64A, 0.5 nM SAFit-FL, 5 nM Mcyc-TA or 1 nM FK [431]-TA, 30 min room temperature
T2 construct: made in house; host or cells: E. coli BL21 (DE3)
T2 sequence (Q13451 1-140 G64A): T1 sequence (Q13451 1-140) with G64A
Source text: as §1, §2

FKBP51 variant G64E = molecular target: T3, FKBP51 variant G64E (Homo sapiens, UniProt Q13451, G64E); assay: Fluorescence polarization tracer binding, FKBP51 G64E; conditions: for Fold change in Kd improvement: FKBP51 G64E compared to WT; for Kd: FKBP51 G64E, 0.5 nM SAFit-FL, 5 nM Mcyc-TA or 1 nM FK [431]-TA, 30 min room temperature
T3 construct: made in house; host or cells: E. coli BL21 (DE3)
T3 sequence (Q13451 1-140 G64E): T1 sequence (Q13451 1-140) with G64E
Source text: as §1, §2

FKBP51 variant G64K = molecular target: T4, FKBP51 variant G64K (Homo sapiens, UniProt Q13451, G64K); assay: Fluorescence polarization tracer binding, FKBP51 G64K; conditions: for Fold change in Kd improvement: FKBP51 G64K compared to WT; for Kd: FKBP51 G64K, 0.5 nM SAFit-FL, 5 nM Mcyc-TA or 1 nM FK [431]-TA, 30 min room temperature
T4 construct: made in house; host or cells: E. coli BL21 (DE3)
T4 sequence (Q13451 1-140 G64K): T1 sequence (Q13451 1-140) with G64K
Source text: as §1, §2

FKBP51 variant G64T = molecular target: T5, FKBP51 variant G64T (Homo sapiens, UniProt Q13451, G64T); assay: Fluorescence polarization tracer binding, FKBP51 G64T; conditions: for Fold change in Kd improvement: FKBP51 G64T compared to WT; for Kd: FKBP51 G64T, 0.5 nM SAFit-FL, 5 nM Mcyc-TA or 1 nM FK [431]-TA, 30 min room temperature
T5 construct: made in house; host or cells: E. coli BL21 (DE3)
T5 sequence (Q13451 1-140 G64T): T1 sequence (Q13451 1-140) with G64T
Source text: as §1, §2

FKBP51 variant F67R = molecular target: T6, FKBP51 variant F67R (Homo sapiens, UniProt Q13451, F67R); assay: Fluorescence polarization tracer binding, FKBP51 F67R; conditions: for Fold change in Kd improvement: FKBP51 F67R compared to WT; for Kd: FKBP51 F67R, 0.5 nM SAFit-FL, 5 nM Mcyc-TA or 1 nM FK [431]-TA, 30 min room temperature
T6 construct: made in house; host or cells: E. coli BL21 (DE3)
T6 sequence (Q13451 1-140 F67R): T1 sequence (Q13451 1-140) with F67R
Source text: as §1, §2

FKBP51 variant F67S = molecular target: T7, FKBP51 variant F67S (Homo sapiens, UniProt Q13451, F67S); assay: Fluorescence polarization tracer binding, FKBP51 F67S; conditions: for Fold change in Kd improvement: FKBP51 F67S compared to WT; for Kd: FKBP51 F67S, 0.5 nM SAFit-FL, 5 nM Mcyc-TA or 1 nM FK [431]-TA, 30 min room temperature
T7 construct: made in house; host or cells: E. coli BL21 (DE3)
T7 sequence (Q13451 1-140 F67S): T1 sequence (Q13451 1-140) with F67S
Source text: as §1, §2

FKBP51 variant F67W = molecular target: T8, FKBP51 variant F67W (Homo sapiens, UniProt Q13451, F67W); assay: Fluorescence polarization tracer binding, FKBP51 F67W; conditions: for Fold change in Kd improvement: FKBP51 F67W compared to WT
T8 construct: made in house; host or cells: E. coli BL21 (DE3)
T8 sequence (Q13451 1-140 F67W): T1 sequence (Q13451 1-140) with F67W
Source text: as §1, §2

Kd (FKBP51 variant F67W; FKBP51 F67W, 0.5 nM SAFit-FL, 5 nM Mcyc-TA or 1 nM FK [431]-TA, 30 min room temperature) [µM]	Structure (SMILES)	Fold change in Kd improvement (FKBP51 WT (FK1 domain)) [fold]	Kd (FKBP51 WT (FK1 domain)) [µM]	Fold change in Kd improvement (FKBP51 variant G64A) [fold]	Kd (FKBP51 variant G64A) [µM]	Fold change in Kd improvement (FKBP51 variant G64E) [fold]	Kd (FKBP51 variant G64E) [µM]	Fold change in Kd improvement (FKBP51 variant G64K) [fold]	Kd (FKBP51 variant G64K) [µM]	Fold change in Kd improvement (FKBP51 variant G64T) [fold]	Kd (FKBP51 variant G64T) [µM]	Fold change in Kd improvement (FKBP51 variant F67R) [fold]	Kd (FKBP51 variant F67R) [µM]	Fold change in Kd improvement (FKBP51 variant F67S) [fold]	Kd (FKBP51 variant F67S) [µM]	Fold change in Kd improvement (FKBP51 variant F67W) [fold]
	CN(C)c1ccc2c(-c3cc(C(=O)NCCn4cc([C@H]5CN(Cc6ccccn6)C(=O)[C@@H]6CCC[C@H]5N6S(=O)(=O)c5cc(Cl)cc(Cl)c5)nn4)ccc3C(=O)O)c3ccc(=[N+](C)C)cc-3oc2c1 [FK [431]-TA]	1	0.0051 ± 0.0001	0.084	0.061 ± 0.002	0.268	0.019 ± 0.001	0.283	0.018 ± 0.001	0.084	0.061 ± 0.002	0.016	0.312 ± 0.014	0.004	1.24 ± 0.06	0.004
0.016 ± 0.001	COc1ccc(CC[C@H]2OC(=O)[C@@H]3CCCCN3C(=O)[C@@H](C3CCCCC3)NC(=O)C(C)(C)NC(=O)COc3cc(OCCNC(=O)c4ccc(C(=O)O)c(-c5c6ccc(=[N+](C)C)cc-6oc6cc(N(C)C)ccc56)c4)cc2c3)cc1OC [Mcyc-TA]	1.00	0.024 ± 0.002	5.71	0.0042 ± 0.0005	7.27	0.0033 ± 0.0003	6.86	0.0035 ± 0.0005	1.41	0.017 ± 0.001	1.00	0.024 ± 0.003	1.14	0.021 ± 0.002	1.50
